Experiments:
human TLR7 = target: T1, human TLR7 (Homo sapiens, UniProt Q9NYK1); experiment: TLR7 inhibition reporter assay (HEK-Blue SEAP); format: cell-based; conditions: HEK-Blue cells overexpressing human TLR7, gardiquimod 7.5 μM, 22 hour incubation
T1 construct: host or cells: HEK-Blue cells
T1 sequence (Q9NYK1 27-1049): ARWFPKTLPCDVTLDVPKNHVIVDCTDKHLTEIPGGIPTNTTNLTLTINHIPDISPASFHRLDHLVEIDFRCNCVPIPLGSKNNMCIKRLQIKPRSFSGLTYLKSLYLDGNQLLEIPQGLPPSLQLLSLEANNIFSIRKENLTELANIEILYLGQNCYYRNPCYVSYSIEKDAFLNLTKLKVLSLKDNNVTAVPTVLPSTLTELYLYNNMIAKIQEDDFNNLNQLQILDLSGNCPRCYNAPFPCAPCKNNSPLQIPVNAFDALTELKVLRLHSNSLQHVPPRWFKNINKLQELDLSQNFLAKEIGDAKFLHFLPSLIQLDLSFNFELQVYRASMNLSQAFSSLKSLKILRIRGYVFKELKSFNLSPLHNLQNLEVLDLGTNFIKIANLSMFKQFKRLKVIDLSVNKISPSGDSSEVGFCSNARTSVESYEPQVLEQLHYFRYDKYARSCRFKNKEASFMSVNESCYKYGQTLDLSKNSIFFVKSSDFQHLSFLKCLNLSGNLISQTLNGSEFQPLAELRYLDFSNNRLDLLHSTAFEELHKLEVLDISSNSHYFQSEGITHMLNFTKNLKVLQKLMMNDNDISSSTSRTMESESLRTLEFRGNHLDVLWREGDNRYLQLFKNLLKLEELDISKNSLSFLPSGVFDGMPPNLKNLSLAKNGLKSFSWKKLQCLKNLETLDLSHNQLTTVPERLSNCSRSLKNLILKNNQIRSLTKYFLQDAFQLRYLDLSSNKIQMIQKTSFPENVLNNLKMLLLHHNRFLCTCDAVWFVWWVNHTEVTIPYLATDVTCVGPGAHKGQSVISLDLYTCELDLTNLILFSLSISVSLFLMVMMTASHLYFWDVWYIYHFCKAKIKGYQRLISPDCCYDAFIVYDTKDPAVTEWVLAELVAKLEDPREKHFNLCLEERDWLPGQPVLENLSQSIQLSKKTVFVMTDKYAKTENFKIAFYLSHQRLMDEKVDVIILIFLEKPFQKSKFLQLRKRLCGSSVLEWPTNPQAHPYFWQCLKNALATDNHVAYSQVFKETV
Protocol: (§1) TLR7/8/9 Inhibition Reporter Assays
Briefly, cells are seeded into Greiner 384 well plates (15000 cells per well for TLR7, 20,000 for TLR8 and 25,000 for TLR9) and then treated with test compounds in DMSO to yield a final dose response concentration range of 0.05 nM-50 μM. […] After a 22 hour incubation at 37° C., 5% CO2, SEAP levels are determined with the addition of HEK-Blue™ Detection reagent (Invivogen), a cell culture medium that allows for detection of SEAP, according to manufacturer's specifications. The percent inhibition is determined as the % reduction in the HEK-Blue signal present in wells treated with agonist plus DMSO alone compared to wells treated with a known inhibitor.

human TLR9 = target: T2, human TLR9 (Homo sapiens, UniProt Q9NR96); experiment: TLR9 inhibition reporter assay (HEK-Blue SEAP); format: cell-based; conditions: HEK-Blue cells overexpressing human TLR9, ODN2006 5 nM, 22 hour incubation
T2 construct: host or cells: HEK-Blue cells
T2 sequence (Q9NR96 26-1032): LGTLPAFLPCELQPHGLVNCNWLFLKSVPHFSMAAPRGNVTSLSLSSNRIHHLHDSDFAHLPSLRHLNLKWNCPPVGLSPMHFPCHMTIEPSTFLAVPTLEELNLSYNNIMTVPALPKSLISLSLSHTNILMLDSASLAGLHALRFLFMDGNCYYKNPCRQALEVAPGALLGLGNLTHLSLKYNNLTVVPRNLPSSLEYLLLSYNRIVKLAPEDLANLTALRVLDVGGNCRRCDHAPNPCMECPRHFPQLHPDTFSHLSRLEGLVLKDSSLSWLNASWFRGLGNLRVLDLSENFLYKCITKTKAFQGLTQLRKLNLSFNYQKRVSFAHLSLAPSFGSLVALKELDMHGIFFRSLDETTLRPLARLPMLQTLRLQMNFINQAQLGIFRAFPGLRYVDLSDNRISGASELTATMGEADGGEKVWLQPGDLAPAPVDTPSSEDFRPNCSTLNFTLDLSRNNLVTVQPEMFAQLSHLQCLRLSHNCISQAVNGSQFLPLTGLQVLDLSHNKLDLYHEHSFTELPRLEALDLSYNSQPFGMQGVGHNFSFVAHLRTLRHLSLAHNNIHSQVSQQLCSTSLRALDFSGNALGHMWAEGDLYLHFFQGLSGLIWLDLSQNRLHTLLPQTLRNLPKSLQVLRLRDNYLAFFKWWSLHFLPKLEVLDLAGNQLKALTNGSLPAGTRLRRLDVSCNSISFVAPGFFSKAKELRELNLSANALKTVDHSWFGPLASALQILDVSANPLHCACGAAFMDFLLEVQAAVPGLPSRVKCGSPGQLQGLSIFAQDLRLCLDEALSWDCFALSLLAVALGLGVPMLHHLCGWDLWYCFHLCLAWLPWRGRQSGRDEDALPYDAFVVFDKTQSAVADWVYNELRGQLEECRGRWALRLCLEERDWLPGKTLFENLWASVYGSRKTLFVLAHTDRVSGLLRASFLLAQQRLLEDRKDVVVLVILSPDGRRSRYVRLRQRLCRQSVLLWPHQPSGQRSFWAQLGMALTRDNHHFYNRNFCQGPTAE
Protocol: as §1
HEK-Blue™-cells (Invivogen) overexpressing human TLR7, TLR8 or TLR9 receptors were used for screening inhibitors of these receptors using an inducible SEAP (secreted embryonic alkaline phosphatase) reporter gene under the control of the IFN-β minimal promoter fused to five NF-κB and AP-1-binding sites. Briefly, cells are seeded into Greiner 384 well plates (15000 cells per well for TLR7, 20,000 for TLR8 and 25,000 for TLR9) and then treated with test compounds in DMSO to yield a final dose response concentration range of 0.05 nM-50 μM. After a 30 minute compound pre-treatment at room temperature, the cells are then stimulated with a TLR7 ligand (gardiquimod at a final concentration of 7.5 μM), TLR8 ligand (R848 at a final concentration of 15.9 μM) or TLR9 ligand (ODN2006 at a final concentration of 5 nM) to activate NF-κB and AP-1 which induce the production of SEAP. After a 22 hour incubation at 37° C., 5% CO2, SEAP levels are determined with the addition of HEK-Blue™ Detection reagent (Invivogen), a cell culture medium that allows for detection of SEAP, according to manufacturer's specifications. The percent inhibition is determined as the % reduction in the HEK-Blue signal present in wells treated with agonist plus DMSO alone compared to wells treated with a known inhibitor.

COc1cc(-c2cc3[nH]c(=O)n([C@@H]4CCCN(CC(=O)N(C)C)C4)c3cc2C)cn2ncnc12 [Example 99, (R)-2-(3-(5-(8-methoxy-[1,2,4]triazolo[1,5-a]pyridin-6-yl)-6-methyl-2-oxo-2,3-dihydro-1H-benzo[d]imidazol-1-yl)piperidin-1-yl)-N,N-dimethylacetamide]
IC50 (human TLR7): 0.391 µM
IC50 (human TLR9): > 50 µM

COc1cc(-c2cc3[nH]c(=O)n(C4CCN(C(=O)CN(C)C)CC4)c3cc2C)cn2ncnc12 [Example 100, 1-(1-(2-(dimethylamino)acetyl)piperidin-4-yl)-5-(8-methoxy-[1,2,4]triazolo[1,5-a]pyridin-6-yl)-6-methyl-1H-benzo[d]imidazol-2(3H)-one]
IC50 (human TLR7): 0.548 µM
IC50 (human TLR9): 1.66 µM

COc1cc(-c2cc3[nH]c(=O)n(C4CCN(CC5CC5)CC4)c3cc2C(C)C)cn2ncnc12 [Example 161, 1-(1-(cyclopropylmethyl)piperidin-4-yl)-6-isopropyl-5-(8-methoxy-[1,2,4]triazolo[1,5-a]pyridin-6-yl)-1,3-dihydro-2H-benzo[d]imidazol-2-one]
IC50 (human TLR7): 0.00728 µM
IC50 (human TLR9): 11.3 µM

COc1cc(-c2cc3[nH]c(=O)n([C@H]4CCCN(CC5CCC5)C4)c3cc2C(C)C)cn2ncnc12 [Example 133, (S)-1-(1-(cyclobutylmethyl)piperidin-3-yl)-6-isopropyl-5-(8-methoxy-[1,2,4]triazolo[1,5-a]pyridin-6-yl)-1,3-dihydro-2H-benzo[d]imidazol-2-one]
IC50 (human TLR7): 0.0173 µM
IC50 (human TLR9): 7.14 µM

COc1cc(-c2cc3[nH]c(=O)n([C@@H]4CCCN(CC(C)(C)C)C4)c3cc2C(C)C)cn2ncnc12 [Example 153, (R)-6-isopropyl-5-(8-methoxy-[1,2,4]triazolo[1,5-a]pyridin-6-yl)-1-(1-neopentylpiperidin-3-yl)-1,3-dihydro-2H-benzo[d]imidazol-2-one]
IC50 (human TLR7): 0.00058 µM
IC50 (human TLR9): 13.1 µM

Cc1cc(-c2ccc3c(c2)[nH]c(=O)n3C2CCN(C)CC2)cn2ncnc12 [Example 4, 5-(8-methyl-[1,2,4]triazolo[1,5-a]pyridin-6-yl)-1-(1-methylpiperidin-4-yl)-1,3-dihydro-2H-benzo[d]imidazol-2-one]
IC50 (human TLR7): 0.863 µM
IC50 (human TLR9): 0.964 µM

Cc1cc(-c2ccc3c(c2)[nH]c(=O)n3C2CCN(C(=O)CN(C)C)CC2)cn2ncnc12 [Example 102, 1-(1-(dimethylglycyl)piperidin-4-yl)-5-(8-methyl-[1,2,4]triazolo[1,5-a]pyridin-6-yl)-1,3-dihydro-2H-benzo[d]imidazol-2-one]
IC50 (human TLR7): > 3.13 µM
IC50 (human TLR9): 3.21 µM

COc1cc(-c2cc3[nH]c(=O)n([C@H]4CCCN(C5CCC5)C4)c3cc2C(C)C)cn2ncnc12 [Example 122, (S)-1-(1-cyclobutylpiperidin-3-yl)-6-isopropyl-5-(8-methoxy-[1,2,4]triazolo[1,5-a]pyridin-6-yl)-1,3-dihydro-2H-benzo[d]imidazol-2-one]
IC50 (human TLR7): 0.0151 µM
IC50 (human TLR9): 12.7 µM

COc1cc(-c2cc3[nH]c(=O)n(C4CCN(C(C)C)CC4)c3cc2C(C)C)cn2ncnc12 [Example 163, 6-isopropyl-1-(1-isopropylpiperidin-4-yl)-5-(8-methoxy-[1,2,4]triazolo[1,5-a]pyridin-6-yl)-1,3-dihydro-2H-benzo[d]imidazol-2-one]
IC50 (human TLR7): 0.00749 µM
IC50 (human TLR9): 15.3 µM

COc1cc(-c2cc3[nH]c(=O)n(C4CCN(CC5CCOC5)CC4)c3cc2C(C)C)cn2ncnc12 (stereo not shown) [Example 160, 6-isopropyl-5-(8-methoxy-[1,2,4]triazolo[1,5-a]pyridin-6-yl)-1-(1-((tetrahydrofuran-3-yl)methyl)piperidin-4-yl)-1,3-dihydro-2H-benzo[d]imidazol-2-one]
IC50 (human TLR7): 0.00866 µM
IC50 (human TLR9): 14.3 µM

COc1cc(-c2cc3[nH]c(=O)n([C@@H]4CCCN(C(C)C)C4)c3cc2C(F)(F)F)cn2ncnc12 [Example 111, (R)-1-(1-isopropylpiperidin-3-yl)-5-(8-methoxy-[1,2,4]triazolo[1,5-a]pyridin-6-yl)-6-(trifluoromethyl)-1,3-dihydro-2H-benzo[d]imidazol-2-one]
IC50 (human TLR7): 0.0236 µM
IC50 (human TLR9): 9.94 µM

Reference: US12187723B2 (BRISTOL-MYERS SQUIBB COMPANY, priority 2019, dated 2025)
